Measurements from patent publication US4740233A, “Substituted 1,2,4-triazolo[1,5-a]-pyrimidine-2-sulfonamides and compositions and methods of controlling undesired vegetation and suppressing the nitrification of ammonium nitrogen in soil” (The Dow Chemical Company, priority 1986, dated 1988).

Experiments:
[1] = tested on: yellow foxtail; test: Preemergent control of plant species; format: in vivo, Setaria lutescens; details: Setaria, pre-emergence, 336 h; 0.25 lb/acre; read-out: percent preemergent control
Outline: (§1)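 Growth reduction relative to untreated plants of the same species, assessed two weeks after treatment, defines the control value. Compositions, mostly aqueous emulsions, were deposited uniformly on seeded greenhouse soil beds at the tabulated rates, with a water-treated bed as reference.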

[2] = tested on: soybean; test: Preemergent control of plant species; format: in vivo, Glycine max.; details: Glycine max, pre-emergence, 336 h; 0.25 lb/acre; read-out: percent preemergent control
Outline: as §1

[3] = tested on: barnyardgrass; test: Postemergent control of plant species; format: in vivo, Echinochloa crusgalli; details: Echinochloa crus-galli, post-emergence, 336 h, read-out: percent postemergent control
Outline: (§2)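 Foliar spray, 2-4 leaf stage, greenhouse. Formulation: acetone solution (2x final conc.) mixed 1:1 with water + 0.1% surface active agent. ~2 wk hold, watered as needed. Readout = % growth reduction vs untreated same-species controls.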

[4] = tested on: crabgrass; test: Postemergent control of plant species; format: in vivo, Digitaria spp.; details: Digitaria sanguinalis, post-emergence, 336 h, read-out: percent postemergent control
Outline: as §2

[5] = tested on: wild oats; test: Postemergent control of plant species; format: in vivo, Avena fatua; details: Avena fatua, post-emergence, 336 h, read-out: percent postemergent control
Outline: as §2

[6] = tested on: pigweed; test: Preemergent control of plant species; format: in vivo, Amaranthus spp.; details: Amaranthus retroflexus, pre-emergence, 336 h; 0.25 lb/acre; read-out: percent preemergent control
Outline: as §1

[7] = tested on: velvetleaf; test: Preemergent control of plant species; format: in vivo, Abutilon theophrasti; details: Abutilon theophrasti, pre-emergence, 336 h; 0.25 lb/acre; read-out: percent preemergent control
Outline: as §1

[8] = tested on: pigweed; test: Postemergent control of plant species; format: in vivo, Amaranthus spp.; details: Amaranthus retroflexus, post-emergence, 336 h, read-out: percent postemergent control
Outline: as §2

[9] = tested on: rape; test: Preemergent control of plant species; format: in vivo, Brassica napus; details: Brassica napus, pre-emergence, 336 h; 0.25 lb/acre; read-out: percent preemergent control
Outline: as §1

[10] = tested on: rice; test: Postemergent control of plant species; format: in vivo, Oryza sativa; details: Oryza sativa, post-emergence, 336 h, read-out: percent postemergent control
Outline: as §2

[11] = tested on: rice; test: Preemergent control of plant species; format: in vivo, Oryza sativa; details: Oryza sativa, pre-emergence, 336 h; 0.25 lb/acre; read-out: percent preemergent control
Outline: as §1

[12] = tested on: johnson grass; test: Preemergent control of plant species; format: in vivo, Sorghum halepense; details: Sorghum halepense, pre-emergence, 336 h; 0.25 lb/acre; read-out: percent preemergent control
Outline: as §1

[13] = tested on: sorghum; test: Postemergent control of plant species; format: in vivo, Sorghum vulgare; details: Sorghum, post-emergence, 336 h, read-out: percent postemergent control
Outline: as §2

[14] = tested on: yellow foxtail; test: Postemergent control of plant species; format: in vivo, Setaria lutescens; details: Setaria, post-emergence, 336 h, read-out: percent postemergent control
Outline: as §2

[15] = tested on: crabgrass; test: Preemergent control of plant species; format: in vivo, Digitaria spp.; details: Digitaria sanguinalis, pre-emergence, 336 h; 0.25 lb/acre; read-out: percent preemergent control
Outline: as §1

[16] = tested on: wheat; test: Preemergent control of plant species; format: in vivo, Triticum aestivum; details: Triticum aestivum, pre-emergence, 336 h; 0.25 lb/acre; read-out: percent preemergent control
Outline: as §1

[17] = tested on: yellow nutsedge; test: Preemergent control of plant species; format: in vivo, Cyperus esculentus; details: Cyperus, pre-emergence, 336 h; 0.25 lb/acre; read-out: percent preemergent control
Outline: as §1

[18] = tested on: yellow nutsedge; test: Postemergent control of plant species; format: in vivo, Cyperus esculentus; details: Cyperus, post-emergence, 336 h, read-out: percent postemergent control
Outline: as §2

[19] = tested on: corn; test: Postemergent control of plant species; format: in vivo, Zea mays; details: Zea mays, post-emergence, 336 h, read-out: percent postemergent control
Outline: as §2

[20] = tested on: cotton; test: Preemergent control of plant species; format: in vivo, Gossypium spp.; details: Gossypium hirsutum, pre-emergence, 336 h; 0.25 lb/acre; read-out: percent preemergent control
Outline: as §1

[21] = tested on: annual morning glory; test: Postemergent control of plant species; format: in vivo, Ipomoea spp.; details: Ipomoea, post-emergence, 336 h, read-out: percent postemergent control
Outline: as §2

[22] = tested on: sugar beet; test: Postemergent control of plant species; format: in vivo, Beta saccharifera; details: Beta vulgaris, post-emergence, 336 h, read-out: percent postemergent control
Outline: as §2

[23] = tested on: soybean; test: Postemergent control of plant species; format: in vivo, Glycine max.; details: Glycine max, post-emergence, 336 h, read-out: percent postemergent control
Outline: as §2

[24] = tested on: velvetleaf; test: Postemergent control of plant species; format: in vivo, Abutilon theophrasti; details: Abutilon theophrasti, post-emergence, 336 h, read-out: percent postemergent control
Outline: as §2

[25] = tested on: jimsonweed; test: Postemergent control of plant species; format: in vivo, Datura stramonium; details: Datura stramonium, post-emergence, 336 h, read-out: percent postemergent control
Outline: as §2

[26] = tested on: rape; test: Postemergent control of plant species; format: in vivo, Brassica napus; details: Brassica napus, post-emergence, 336 h, read-out: percent postemergent control
Outline: as §2

[27] = tested on: wild oats; test: Preemergent control of plant species; format: in vivo; details: Avena fatua, pre-emergence, 336 h; 0.25 lb/acre; read-out: percent preemergent control
Outline: as §1

[28] = tested on: johnson grass; test: Postemergent control of plant species; format: in vivo, Sorghum halepense; details: Sorghum halepense, post-emergence, 336 h, read-out: percent postemergent control
Outline: as §2

Q: How did the pest or weed control at 280.212 g/ha [1] turn out when `Cc1cc(C)n2nc(S(=O)(=O)Nc3ccc(Cl)cc3C(F)(F)F)nc2n1` [Compound 34] was run?
A: 0%

Q: What about the plant injury at 280.212 g/ha [2] of the same compound?
A: 80%

Q: And the pest or weed control at 500 ppm [3]?
A: 0%

Q: And the pest or weed control at 500 ppm [4]?
A: 0%

Q: What about the pest or weed control at 500 ppm [5] of the same compound?
A: 0%

Q: And the pest or weed control at 280.212 g/ha [6]?
A: 50%

Q: What about the pest or weed control at 280.212 g/ha [7] of the same compound?
A: 80%

Q: What about the pest or weed control at 500 ppm [8] of the same compound?
A: 100%

Q: What about the plant injury at 280.212 g/ha [9] of the same compound?
A: 95%

Q: What about the plant injury at 500 ppm [10] of the same compound?
A: 0%

Q: And the plant injury at 280.212 g/ha [11]?
A: 40%

Q: And the pest or weed control at 280.212 g/ha [12]?
A: 80%

Q: And the plant injury at 500 ppm [13]?
A: 60%

Q: What about the pest or weed control at 500 ppm [14] of the same compound?
A: 0%

Q: And the pest or weed control at 280.212 g/ha [15]?
A: 0%

Q: What about the plant injury at 280.212 g/ha [16] of the same compound?
A: 0%

Q: What about the pest or weed control at 280.212 g/ha [17] of the same compound?
A: 70%

Q: What about the pest or weed control at 500 ppm [18] of the same compound?
A: 60%

Q: What about the plant injury at 500 ppm [19] of the same compound?
A: 0%

Q: What about the plant injury at 280.212 g/ha [20] of the same compound?
A: 80%

Q: What about the pest or weed control at 500 ppm [21] of the same compound?
A: 75%

Q: And the plant injury at 500 ppm [22]?
A: 100%

Q: And the plant injury at 500 ppm [23]?
A: 90%

Q: What about the pest or weed control at 500 ppm [24] of the same compound?
A: 100%

Q: What about the pest or weed control at 500 ppm [25] of the same compound?
A: 90%

Q: What about the plant injury at 500 ppm [26] of the same compound?
A: 100%

Q: And the pest or weed control at 280.212 g/ha [27]?
A: 0%

Q: And the pest or weed control at 500 ppm [28]?
A: 20%
